Values quoted from earlier work, collected in paper PMC2908260 (Journal of nuclear medicine : official publication, Society …, 2010).

Settings: other ^18F-labeled octreotide analogues

For “N^α-(1-deoxy-D-fructosyl)-N^ε-(2-[^18F]fluoropropionyl)-Lys^0-Tyr^3octreotate [[^18F]FP-Gluc-TOCA]”, the “log P” value is given as −1.70 ± 0.02.
